Patent EP2727944A1, “Depletion of CCR2-positive monocytes for the treatment of inflammatory conditions in the gastrointestinal system” (Universitätsklinikum Regensburg, priority 2012, dated 2014)

Tested on: CX3CR1/GFP^intLy6C^hi effector monocytes
Assay: IL-6 ELISA of sorted colonic cells cultured with TLR/NOD2 ligands
Format: cell-based, mice
Details: cells sorted at DSS day 7, cultured 16 hr; Pam3CSK4 10 µg/ml, LPS 100 ng/ml
From the text: To probe whether the pro-inflammatory signature of the effector monocytes could have been a result of TLR and NOD-2 engagement, the cells were isolated from colitic mice and exposed to the respective ligands.

Pam3CSK4
IL-6 secretion: substantial IL-6 secretion
